# In patent US9233989B2, “Sila analogs of oxazolidinone derivatives and synthesis thereof” (Council of Scientific & Industrial Research, priority 2011, dated 2016):
# Assays:
# MRSE ATCC 35984 = experiment: MIC by microbroth dilution method; assay type: cell-based, S. epidermidis
# MRSE ATCC 35983 = experiment: MIC by microbroth dilution method; assay type: cell-based, S. epidermidis
# [1] = system: Mycobacterium tuberculosis H37Rv; experiment: Anti-TB activity, colorimetric resazurin microtiter assay; assay type: cell-based; details: Mycobacterium tuberculosis, H37RV, read-out: MIC, Minimum Inhibitory Concentration (90%)
# [2] = system: S.aureus ATCC 700699 Mu50; experiment: MIC by microbroth dilution method; assay type: cell-based
# S.epidermidis ATCC 12228 = experiment: MIC by microbroth dilution method; assay type: cell-based
# MRSA 562 = experiment: MIC by microbroth dilution method; assay type: cell-based, S. aureus
# [3] = system: S.aureus ATCC Newman 25904; experiment: MIC by microbroth dilution method; assay type: cell-based
# E.coli 7632 = experiment: MIC by microbroth dilution method; assay type: cell-based
# E.faecium ATCC 49224 = experiment: MIC by microbroth dilution method; assay type: cell-based
# [4] = system: S.aureus ATCC 13709 Smith; experiment: MIC by microbroth dilution method; assay type: cell-based
# E.faecium 6A VRE = experiment: MIC by microbroth dilution method; assay type: cell-based
# E.faecium 06076 VRE = experiment: MIC by microbroth dilution method; assay type: cell-based
# S.aureus2 (PVL + ve) = assay type: cell-based, S. aureus
# E.faecium ATCC 3567 = experiment: MIC by microbroth dilution method; assay type: cell-based
# E.faecalis ATCC 29212 = experiment: MIC by microbroth dilution method; assay type: cell-based
# MRSA DB 00026 = experiment: MIC by microbroth dilution method; assay type: cell-based, S. aureus
# S.epidermis St 358 = experiment: MIC by microbroth dilution method; assay type: cell-based, S. epidermidis
# E.faecium ATCC 35667 = experiment: MIC by microbroth dilution method; assay type: cell-based
# MRSA 252 BAA 1720 = experiment: MIC by microbroth dilution method; assay type: cell-based, S. aureus
# [5] = system: E.faecalis ATCC 51299(VRE&HLAR); experiment: MIC by microbroth dilution method; assay type: cell-based
# E.faecalis SP 346 VRE = experiment: MIC by microbroth dilution method; assay type: cell-based
# [6] = system: S.aureus 13709 LNZ mutant; assay type: cell-based
# S.epidermidis ATCC 14990 = experiment: MIC by microbroth dilution method; assay type: cell-based
# E.faecium ATCC 19434 = experiment: MIC by microbroth dilution method; assay type: cell-based
# MRSA ATCC 43300 = experiment: MIC by microbroth dilution method; assay type: cell-based, S. aureus
# [7] = system: S.aureus ATCC 49775 PVL + ve; assay type: cell-based
# MRSA 0-2657 = experiment: MIC by microbroth dilution method; assay type: cell-based, S. aureus
# S.aureus DB00026 = experiment: MIC by microbroth dilution method; assay type: cell-based
# E.faecalis ATCC 19433 = experiment: MIC by microbroth dilution method; assay type: cell-based
# S.aureus ATCC 29213 = experiment: MIC by microbroth dilution method; assay type: cell-based
# E.faecium 134 VRE = experiment: MIC by microbroth dilution method; assay type: cell-based
# MRSA ATCC BAA 39 = experiment: MIC by microbroth dilution method; assay type: cell-based, S. aureus
SMILES,MIC (MRSE ATCC 35984),MIC (MRSE ATCC 35983),MIC [1],MIC [2],MIC (S.epidermidis ATCC 12228),MIC (MRSA 562),MIC [3],MIC (E.coli 7632),MIC (E.faecium ATCC 49224),MIC [4],MIC (E.faecium 6A VRE),MIC (E.faecium 06076 VRE),MIC (S.aureus2 (PVL + ve)),MIC (E.faecium ATCC 3567),MIC (E.faecalis ATCC 29212),MIC (MRSA DB 00026),MIC (S.epidermis St 358),MIC (E.faecium ATCC 35667),MIC (MRSA 252 BAA 1720),MIC [5],other results
"C[Si]1(C)CCN(c2ccc(N3C[C@H](CN)OC3=O)cc2F)CC1 [NDS-10057, (S)-5-(aminomethyl)-3-(4-(4,4-dimethyl-1,4-azasilinan-1-yl)-3-fluorophenyl)oxazolidin-2-one]",32 µg/mL,> 32 µg/mL,25 µg/mL,> 32 µg/mL,> 32 µg/mL,> 32 µg/mL,> 32 µg/mL,32 µg/mL,32 µg/mL,> 32 µg/mL,> 32 µg/mL,> 32 µg/mL,> 32 µg/mL,> 32 µg/mL,> 32 µg/mL,> 32 µg/mL,> 32 µg/mL,32 µg/mL,> 32 µg/mL,16 µg/mL,MIC (E.faecalis SP 346 VRE): > 32 µg/mL; MIC [6]: > 32 µg/mL; MIC (S.epidermidis ATCC 14990): > 32 µg/mL; MIC (E.faecium ATCC 19434): 32 µg/mL; MIC (MRSA ATCC 43300): > 32 µg/mL; MIC [7]: > 32 µg/mL; MIC (MRSA 0-2657): > 32 µg/mL; MIC (S.aureus DB00026): > 32 µg/mL; MIC (E.faecalis ATCC 19433): 32 µg/mL; MIC (S.aureus ATCC 29213): > 32 µg/mL; MIC (E.faecium 134 VRE): 32 µg/mL; MIC (MRSA ATCC BAA 39): > 32 µg/mL
"C[Si]1(c2ccccc2)CCN(c2c(F)cc(N3C[C@H](CN)OC3=O)cc2F)CC1 [NDS-10070, (S)-5-(aminomethyl)-3-(3,5-difluoro-4-(4-methyl-4-phenyl-1,4-azasilinan-1-yl)phenyl)oxazolidin-2-one]",32 µg/mL,> 32 µg/mL,50 µg/mL,> 32 µg/mL,> 32 µg/mL,32 µg/mL,> 32 µg/mL,32 µg/mL,32 µg/mL,> 32 µg/mL,> 32 µg/mL,> 32 µg/mL,> 32 µg/mL,> 32 µg/mL,32 µg/mL,> 32 µg/mL,> 32 µg/mL,32 µg/mL,> 32 µg/mL,32 µg/mL,MIC (E.faecalis SP 346 VRE): > 32 µg/mL; MIC [6]: > 32 µg/mL; MIC (S.epidermidis ATCC 14990): > 32 µg/mL; MIC (E.faecium ATCC 19434): 32 µg/mL; MIC (MRSA ATCC 43300): > 32 µg/mL; MIC [7]: > 32 µg/mL; MIC (MRSA 0-2657): > 32 µg/mL; MIC (S.aureus DB00026): > 32 µg/mL; MIC (E.faecalis ATCC 19433): 32 µg/mL; MIC (S.aureus ATCC 29213): > 32 µg/mL; MIC (E.faecium 134 VRE): > 32 µg/mL; MIC (MRSA ATCC BAA 39): > 32 µg/mL
"COC(=O)NC[C@H]1CN(c2ccc(N3CC[Si](C)(C)CC3)c(F)c2)C(=O)O1 [NDS-10061, (S)-methyl((3-(4-(4,4-dimethyl-1,4-azasilinan-1-yl)-3-fluorophenyl)-2-oxooxazolidin-5-yl)methyl)carbamate]",8 µg/mL,16 µg/mL,25 µg/mL,32 µg/mL,> 32 µg/mL,16 µg/mL,16 µg/mL,8 µg/mL,16 µg/mL,8 µg/mL,32 µg/mL,32 µg/mL,16 µg/mL,32 µg/mL,8 µg/mL,16 µg/mL,32 µg/mL,16 µg/mL,16 µg/mL,32 µg/mL,MIC (E.faecalis SP 346 VRE): 16 µg/mL; MIC [6]: 32 µg/mL; MIC (S.epidermidis ATCC 14990): 8 µg/mL; MIC (E.faecium ATCC 19434): 32 µg/mL; MIC (MRSA ATCC 43300): > 32 µg/mL; MIC [7]: 16 µg/mL; MIC (MRSA 0-2657): 16 µg/mL; MIC (S.aureus DB00026): 8 µg/mL; MIC (E.faecalis ATCC 19433): 16 µg/mL; MIC (S.aureus ATCC 29213): 16 µg/mL; MIC (E.faecium 134 VRE): 16 µg/mL; MIC (MRSA ATCC BAA 39): 16 µg/mL
"CCC(=O)NC[C@H]1CN(c2cc(F)c(N3CC[Si](C)(C)CC3)c(F)c2)C(=O)O1 [NDS-10056, (S)—N-((3-(4-(4,4-dimethyl-1,4-azasilinan-1-yl)-3,5-difluorophenyl)-2-oxooxazolidin-5-yl)methyl)propionamide]",32 µg/mL,32 µg/mL,50 µg/mL,16 µg/mL,8 µg/mL,8 µg/mL,16 µg/mL,> 32 µg/mL,32 µg/mL,> 32 µg/mL,8 µg/mL,> 32 µg/mL,8 µg/mL,32 µg/mL,32 µg/mL,32 µg/mL,32 µg/mL,32 µg/mL,32 µg/mL,8 µg/mL,MIC (E.faecalis SP 346 VRE): 16 µg/mL; MIC [6]: > 32 µg/mL; MIC (S.epidermidis ATCC 14990): 16 µg/mL; MIC (E.faecium ATCC 19434): 32 µg/mL; MIC (MRSA ATCC 43300): 16 µg/mL; MIC [7]: 32 µg/mL; MIC (MRSA 0-2657): 16 µg/mL; MIC (S.aureus DB00026): > 32 µg/mL; MIC (E.faecalis ATCC 19433): 32 µg/mL; MIC (S.aureus ATCC 29213): > 32 µg/mL; MIC (E.faecium 134 VRE): 32 µg/mL; MIC (MRSA ATCC BAA 39): 32 µg/mL
"COC(=O)NC[C@H]1CN(c2cc(F)c(N3CC[Si](C)(C)CC3)c(F)c2)C(=O)O1 [NDS-10053, (S)-methyl(3-(4-(4,4-dimethyl-1,4-azasilinan-1-yl)-3,5-difluorophenyl)-2-oxooxazolidin-5-yl)methylcarbamate]",8 µg/mL,32 µg/mL,50 µg/mL,8 µg/mL,8 µg/mL,16 µg/mL,16 µg/mL,> 32 µg/mL,32 µg/mL,16 µg/mL,4 µg/mL,> 32 µg/mL,16 µg/mL,16 µg/mL,32 µg/mL,32 µg/mL,16 µg/mL,8 µg/mL,8 µg/mL,16 µg/mL,MIC (E.faecalis SP 346 VRE): 32 µg/mL; MIC [6]: > 32 µg/mL; MIC (S.epidermidis ATCC 14990): 8 µg/mL; MIC (E.faecium ATCC 19434): 16 µg/mL; MIC (MRSA ATCC 43300): 16 µg/mL; MIC [7]: 16 µg/mL; MIC (MRSA 0-2657): 8 µg/mL; MIC (S.aureus DB00026): 16 µg/mL; MIC (E.faecalis ATCC 19433): 32 µg/mL; MIC (S.aureus ATCC 29213): 16 µg/mL; MIC (E.faecium 134 VRE): 32 µg/mL; MIC (MRSA ATCC BAA 39): 8 µg/mL
"COC(=S)NC[C@H]1CN(c2ccc(N3CC[Si](C)(C)CC3)c(F)c2)C(=O)O1 [NDS-10062, (S)—O-methyl((3-(4-(4,4-dimethyl-1,4-azasilinan-1-yl)-3-fluorophenyl)-2-oxooxazolidin-5-yl)methyl)carbamothioate]",2 µg/mL,4 µg/mL,50 µg/mL,8 µg/mL,> 32 µg/mL,4 µg/mL,4 µg/mL,2 µg/mL,4 µg/mL,4 µg/mL,8 µg/mL,4 µg/mL,4 µg/mL,4 µg/mL,1 µg/mL,4 µg/mL,4 µg/mL,4 µg/mL,8 µg/mL,4 µg/mL,MIC (E.faecalis SP 346 VRE): 4 µg/mL; MIC [6]: 4 µg/mL; MIC (S.epidermidis ATCC 14990): 4 µg/mL; MIC (E.faecium ATCC 19434): 8 µg/mL; MIC (MRSA ATCC 43300): 4 µg/mL; MIC [7]: 4 µg/mL; MIC (MRSA 0-2657): 4 µg/mL; MIC (S.aureus DB00026): 4 µg/mL; MIC (E.faecalis ATCC 19433): 2 µg/mL; MIC (S.aureus ATCC 29213): 4 µg/mL; MIC (E.faecium 134 VRE): 4 µg/mL; MIC (MRSA ATCC BAA 39): 4 µg/mL
"CC(=O)NC[C@H]1CN(c2cc(F)c(N3CC[Si](C)(C)CC3)c(F)c2)C(=O)O1 [NDS-10028, (S)—N-((3-(4-(4,4-dimethyl-1,4-azasilinan-1-yl)-3,5-difluorophenyl)-2-oxooxazolidin-5-yl)methyl)acetamide]",8 µg/mL,4 µg/mL,> 50 µg/mL,8 µg/mL,4 µg/mL,8 µg/mL,> 32 µg/mL,> 32 µg/mL,8 µg/mL,8 µg/mL,4 µg/mL,8 µg/mL,> 32 µg/mL,16 µg/mL,8 µg/mL,8 µg/mL,8 µg/mL,8 µg/mL,> 32 µg/mL,8 µg/mL,MIC (E.faecalis SP 346 VRE): 8 µg/mL; MIC [6]: > 16 µg/mL; MIC (S.epidermidis ATCC 14990): 4 µg/mL; MIC (E.faecium ATCC 19434): 8 µg/mL; MIC (MRSA ATCC 43300): > 32 µg/mL; MIC [7]: 16 µg/mL; MIC (MRSA 0-2657): 8 µg/mL; MIC (S.aureus DB00026): > 32 µg/mL; MIC (E.faecalis ATCC 19433): 16 µg/mL; MIC (S.aureus ATCC 29213): > 16 µg/mL; MIC (E.faecium 134 VRE): 8 µg/mL; MIC (MRSA ATCC BAA 39): 8 µg/mL
